Measurements: ChEMBL document CHEMBL3988442, “University of Dundee, Small-Polar-MMV Screening Library” (2021)

Tests used:
[1] = microbe, parasite or virus in culture; conditions: Mycobacterium tuberculosis, 96 h, read-out: pIC50 (converted)
[2] = microbe, parasite or virus in culture; conditions: Mycobacterium tuberculosis, 72 h, read-out: pIC50 (converted)

Structure (SMILES)	IC50 [1]	IC50 [2]
NC(=O)CCSCc1ccn(-c2ccccc2)n1	229 µM	> 501 µM
Cc1nn(C)c2ncnc(N(C)CC3CCN(CC(C)C)C3)c12 (stereo not given)	> 50.1 µM	> 50.1 µM
COc1ccc2[nH]c(C(=O)NCC3CCCO3)cc2c1 (stereo not given)	220 µM	156 µM
CCCc1noc(C(C)Nc2cccc(C(N)=O)c2)n1 (stereo not given)	156 µM	56.4 µM
Cc1cc(NC(C)CN2CCOCC2)ncc1Br (stereo not given)	> 501 µM	420 µM
COc1ccc(COCC(O)CN(C)c2ccc(C)cc2C)cc1 (stereo not given)	16.8 µM	16 µM
COc1cc(C(=O)N(Cc2cccs2)C2CC2)cc2c1OCCO2	> 50.1 µM	> 50.1 µM
O=C(c1ccc(F)cc1)N1C[C@H]2CCC[C@@]2(COCc2ccncc2)C1	> 50.1 µM	> 50.1 µM
O=C(CN(C1=NCCCCC1)c1ccc(Cl)cc1)c1ccccc1	22.8 µM	20.7 µM
CC(C)N(CCNc1nc(C2CCCC2)nc2c1cnn2C)C(C)C	18.7 µM	20.6 µM
O=C(c1cccc(F)c1)N1CCN(c2nccs2)CC1	> 501 µM	228 µM
Cc1cccc(C2(O)CCN(Cc3ccccc3N3CCCC3)CC2)c1	20.7 µM	12.1 µM
Cc1csc(NC(=O)C(C)Oc2ccc3c(c2)OCO3)n1 (stereo not given)	1.63 µM	30.5 µM
CC(C)Oc1ccc(CNC(=O)N2CCCC2)cn1	118 µM	126 µM
CCc1nnc2n1CCN(C(C(=O)NC1CC1)c1ccccc1)C2 (stereo not given)	> 50.1 µM	> 50.1 µM
CN(Cc1c(F)cccc1Cl)S(=O)(=O)N1CCOCC1	269 µM	270 µM
Cc1cc2n(n1)CC(CNC1CCN(C3CC3)CC1)CN2 (stereo not given)	> 50.1 µM	> 50.1 µM
Cc1nsc(C(=O)NCCc2ccccc2)n1	20.9 µM	15.5 µM
Cc1ccccc1CN1CCCN(S(=O)(=O)N(C)C2CCCCC2)CC1	> 50.1 µM	> 50.1 µM
N#Cc1ccc(C(=O)NCC2CC2)cc1	123 µM	123 µM
NCCCNS(=O)(=O)c1ccc(Br)c(F)c1	> 501 µM	189 µM
COc1cc(F)cc(NCC(=O)NCc2ccco2)c1	32.7 µM	35 µM
CCc1nc(C2CCCN2C(=O)CCCOc2cccc(F)c2)no1 (stereo not given)	> 50.1 µM	> 50.1 µM
CCS(=O)(=O)NCCNS(=O)(=O)c1ccc(C)cc1Cl	> 501 µM	> 501 µM
CNC(=O)c1cccc(NCc2ccc(C#N)s2)n1	205 µM	180 µM

Structure (SMILES)	IC50 [1]	IC50 [2]
Cc1cncc(NCc2ccccc2N2CCOCC2)c1	6.18 µM	6.63 µM
O=C(c1ccno1)N1CCOC[C@H](Oc2ccc(C(F)(F)F)cc2)C1	> 50.1 µM	> 50.1 µM
Cc1nn(CCCN)c(C)c1Br	> 501 µM	266 µM
COc1ccc(CCN)cc1F	247 µM	304 µM
COc1cc(OC)cc(N2CCCNCC2)c1	150 µM	112 µM
CCCNC(=O)c1cc(Br)c[nH]1	> 501 µM	> 501 µM
O=C(Nc1cc[nH]n1)c1csc(I)c1	> 501 µM	193 µM
NC(=O)c1cc(C2CCCN(C(=O)CCc3ccncc3)C2)n[nH]1 (stereo not given)	> 50.1 µM	> 50.1 µM
Cc1cccc(CN2CCCC3(CCN(C4CCSCC4)C3)C2=O)c1 (stereo not given)	15.8 µM	10 µM
Cc1nc(C2CCCN(C(=O)c3cc4c(s3)CCCC4)C2)no1 (stereo not given)	11.7 µM	40.8 µM
O=C1Nc2ccccc2NC12CCN(c1cccc(C(F)(F)F)n1)CC2	> 50.1 µM	> 50.1 µM
Cc1ncsc1CCCNC(=O)c1cnccn1	> 501 µM	> 501 µM
COC(=O)C(NC(=O)c1ccc(NC2CC2)nc1)c1ccccc1 (stereo not given)	21.9 µM	> 50.1 µM
CSc1ccc2c(c1)CCN(C(=O)C1CCNC1)C2 (stereo not given)	> 501 µM	168 µM
O=C(CCc1ccccc1)N1CC(c2cccnc2)C1	25.3 µM	45.7 µM
CN(Cc1nnc2n1CCC2)C(=O)c1ccc2c(c1)OCCCO2	> 50.1 µM	> 50.1 µM
O=C(NC1CC1)c1cccc(CNc2ccccn2)c1	> 501 µM	220 µM
CNS(=O)(=O)c1ccc(C(=O)Nc2ccc(F)cc2)o1	> 501 µM	> 501 µM
N#Cc1cc(Cl)ccc1N1CCN(C(=O)C2CCC2)CC1	> 50.1 µM	> 50.1 µM
CCn1ncnc1CN1CC(Oc2ccccc2)C1	> 501 µM	151 µM
COc1ccc(C(=O)NCc2ncnn2C)cc1Br	> 501 µM	326 µM
CCn1ccc(C(=O)NC(C)c2ccccc2)n1 (stereo not given)	182 µM	84.4 µM
NCc1noc(-c2cccc(Br)c2)n1	> 501 µM	127 µM
O=C(CSc1cnn[nH]1)N1CCc2ccccc2C1	> 501 µM	> 501 µM
O=C(NCCc1c[nH]c2ccccc12)C1(n2cnnn2)CCCCC1	> 50.1 µM	47.6 µM

Structure (SMILES)	IC50 [1]	IC50 [2]
CN(C)c1cc(C(=O)Nc2ccccc2F)ccn1	321 µM	237 µM
CC(C)c1cccc(S(=O)(=O)NCCN)c1	> 501 µM	219 µM
CNCC(=O)NCCc1c(OC)ccc2ccccc12	> 501 µM	411 µM
CS(=O)(=O)N1CCC(Cc2ccccc2)C1 (stereo not given)	467 µM	482 µM
CC(=O)N1CCCC1c1nnn2cc(-c3ccncc3)ccc12 (stereo not given)	> 50.1 µM	> 50.1 µM
NCC(=O)N1CCCC(CCc2ccc(F)cc2)C1 (stereo not given)	310 µM	333 µM
O=C(OCCNc1ncccn1)c1ccc(Cl)s1	> 50.1 µM	29.7 µM
CC(N)C(=O)N1CCC(Oc2ccccc2Cl)CC1 (stereo not given)	227 µM	288 µM
Cc1cc(=O)[nH]c(-n2nc(-c3ccccc3)cc2N)n1	> 50.1 µM	43.5 µM
COc1cccc(CNc2nc(C(C)C)nn2C)n1	> 501 µM	315 µM
COC(=O)COc1cc(NCc2c(C)noc2C)c(Cl)cc1C	35 µM	32.1 µM
Cc1cc(OCC(=O)NCc2ccccc2F)no1	118 µM	73.3 µM
CCS(=O)(=O)N1CCCCC1c1nc(C(C)C)no1 (stereo not given)	> 50.1 µM	> 50.1 µM
COc1cc(Cl)cc(CN2CCCC(N3CCCC3)C2)c1OC (stereo not given)	28.3 µM	23.3 µM
CC(C)c1nnc(CNc2ccc(SC(F)(F)F)cc2)o1	18.9 µM	19.3 µM
Cc1ccc(-c2cc(CS(=O)(=O)NC3CCCNC3=O)on2)cc1 (stereo not given)	> 50.1 µM	> 50.1 µM
CN(CCC#N)C(=O)COC(=O)c1ccccc1Br	> 501 µM	139 µM
CCc1ccccc1OCCN(C)C(=O)CN1CCCC1	> 50.1 µM	39.2 µM
O=C(c1cccc(-n2cccn2)n1)N1CCCC1	163 µM	59.6 µM
CN(C)C(CN)c1ccc(F)cc1 (stereo not given)	> 501 µM	244 µM
CCc1nnsc1C(=O)NC(CC(C)C)C(=O)OC (stereo not given)	> 50.1 µM	> 50.1 µM
CCNC(=O)NC(c1ccc2c(c1)OCCO2)C(C)C (stereo not given)	> 501 µM	> 501 µM
CSc1cc(NC(=O)NCCc2ccccn2)ccn1	438 µM	411 µM
CSCC(CCO)Nc1ncccc1C(F)(F)F (stereo not given)	> 501 µM	253 µM
CCCN(CCO)CC(=O)N1CCCC(C)C1 (stereo not given)	> 501 µM	> 501 µM
